Laboratory results: patent US12391648B2, “Pyridyloxy thioester derivative and preparation method therefor, herbicidal composition, and application” (Qingdao Kingagroot Chemical Compound Co., Ltd., priority 2018, dated 2025)

What was measured:
Type in all cases: in vivo
[1] = tested on: ALS resistant Cyperus iria; assay: Post-emergence test experiment (Table 4), weed control; conditions: 600 g/ha active ingredient, plus water 450 kg/ha, after 3 weeks
Text: (§1) The activity level standard of harmful plants destruction (i. e. growth inhibition rate) is as follows: • Level 5: the growth inhibition rate is greater than 85%; • Level 4: the growth inhibition rate is equal to or greater than 60% and less than 85%; • Level 3: the growth inhibition rate is equal to or greater than 40% and less than 60%; • Level 2: the growth inhibition rate is equal to or greater than 20% and less than 40%; • Level 1: the growth inhibition rate is equal to or greater than 5% and less than 20%; • Level 0: the growth inhibition rate is less than 5%;
(§2) The above described growth inhibition rate is fresh weight inhibition rate.
(§3) Post-emergence test experiment: Monocotyledonous and dicotyledonous weed seeds and main crop seeds (i. e. wheat, corn, rice, soybean, cotton, oilseed, millet and sorghum.) were put into a plastic pot loaded with soil. Then covered with 0.5-2 cm soil, the seeds were allowed to grow in good greenhouse environment. The test plants were treated at 2-3 leaf stage 2 weeks after sowing. The test compounds of the invention were dissolved with acetone respectively, then added with tween-80, and using 1.5 liters per hectare of an emulsible concentrate of methyl oleate as a synergist, and diluted by certain amount of water to certain concentration. The solution was sprayed to the plants with a sprayer. Then the plants were cultured for 3 weeks in the greenhouse, and the experiment result of weed controlling effect after 3 weeks was listed in tables 3-4.
(§4) […] Echinochloa crusgalli and Cyperus iria were collected from Ningxia Hui Autonomous Region of China, which had evolved resistance to ALS inhibiting herbicides. • Control compound A:

[2] = tested on: ALS resistant Echinochloa crusgalli; assay: as above; conditions: 600 g/ha active ingredient, plus water 450 kg/ha, after 3 weeks
Text: as §1, §2, §3, §4

rice (japonica rice) = assay: Transplanted rice safety evaluation; conditions: 1000 g/ha, transplanted 3-leaf stage japonica rice, treated 5 days after transplantation, 21 days after treatment
Text: as §1
(§5) Transplanted rice safety evaluation and weed control effect evaluation in rice field:
In addition, the rice field soil that loaded into the 1/1,000,000 ha pot was leveled to keep water storage at 3-4 cm depth. The 3-leaf stage rice (japonica rice) was transplanted at 3 cm of transplanting depth the next day. The compound of the present invention was treated by the same way after 5 days of transplantation.
(§6) The fertility condition of Monochoria vaginalis 14 days and rice 21 days after the treatment of the compound of the invention with the naked eye.

Leptochloa chinensis = assay: Post-emergence test experiment (Table 3, 1000 g/ha); conditions: post-emergence spray, after 3 weeks, fresh weight inhibition
How it was run: (§7)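 Activity graded levels 0-5 by fresh-weight inhibition (level 5 above 85%, level 0 below 5%), assessed 3 weeks after treatment. Plants grown in greenhouse pots were sprayed post-emergence at 2-3 leaves using acetone/tween-80 solutions with methyl oleate synergist (1.5 L/ha).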

Digitaria sanguinalis = assay: as above; conditions: post-emergence spray, after 3 weeks, fresh weight inhibition
How it was run: as §7

Monochoria vaginalis [3] = assay: as above; conditions: post-emergence spray, after 3 weeks, fresh weight inhibition
How it was run: as §7

Abutilon theophrasti = assay: as above; conditions: post-emergence spray, after 3 weeks, fresh weight inhibition
How it was run: as §7

Setaria viridis = assay: as above; conditions: post-emergence spray, after 3 weeks, fresh weight inhibition
How it was run: as §7

Galium spurium = assay: as above; conditions: post-emergence spray, after 3 weeks, fresh weight inhibition
How it was run: as §7

Japonica rice = assay: Post-emergence test experiment (Table 4), crop safety; conditions: 600 g/ha active ingredient, plus water 450 kg/ha, after 3 weeks
Text: as §1, §2, §3, §4

Indica rice = assay: as above; conditions: 600 g/ha active ingredient, plus water 450 kg/ha, after 3 weeks
Text: as §1, §2, §3, §4

Monochoria vaginalis [4] = assay: Weed control effect evaluation in rice field; conditions: 1000 g/ha, paddy water application at 0.5 leaf stage, 14 days after treatment, weeds resistant to pyrazosulfuron-ethyl and penoxsulam
Text: as §1, §5
Rice field soil was loaded into a 1/1,000,000 ha pot. The seeds of Monochoria vaginalis were sowed and gently covered with soil, then left to stand still in greenhouse in the state of 0.5-1 cm of water storage. It was kept at 3-4 cm of water storage thereafter. The weeds were treated by dripping the WP or SC water diluents prepared according to the common preparation method of the compounds of the present invention with pipette homogeneously to achieve specified effective amount when Monochoria vaginalis reached 0. 5 leaf stage.
as §6
Note: The seeds of Monochoria vaginalis were collected from Heilongjing Province of China.

| SMILES | ALS resistant Cyperus iria, activity level (growth inhibition rate) [1] | ALS resistant Echinochloa crusgalli, activity level (growth inhibition rate) [2] | Rice, activity standard level 0-5 (safety) (rice (japonica rice)) | Activity level (growth inhibition rate) Leptochloa chinensis (Leptochloa chinensis) | Activity level (growth inhibition rate) Digitaria sanguinalis (Digitaria sanguinalis) | Activity level (growth inhibition rate) Monochoria Vaginalis (Monochoria vaginalis [3]) | Activity level (growth inhibition rate) Abutilon theophrasti (Abutilon theophrasti) | Activity level (growth inhibition rate) Setaria viridis (Setaria viridis) | Activity level (growth inhibition rate) Galium spurium (Galium spurium) | Japonica rice, activity level (growth inhibition rate) (Japonica rice) | Indica rice, activity level (growth inhibition rate) (Indica rice) | Monochoria Vaginalis, activity standard level 0-5 (Monochoria vaginalis [4]) |
| --- | --- | --- | --- | --- | --- | --- | --- | --- | --- | --- | --- | --- |
| CC(C)=NOCCSC(=O)C(C)Oc1nc(F)c(Cl)c(N)c1Cl (stereo not drawn) [Compound 97] | 5 (Level 5: the growth inhibition rate is greater than 85%) | 5 (Level 5: the growth inhibition rate is greater than 85%) | 0 (Level 0: the growth inhibition rate is less than 5%) | 5 (Level 5: the growth inhibition rate is greater than 85%) | 5 (Level 5: the growth inhibition rate is greater than 85%) | 5 (Level 5: the growth inhibition rate is greater than 85%) | 5 (Level 5: the growth inhibition rate is greater than 85%) | 5 (Level 5: the growth inhibition rate is greater than 85%) | 5 (Level 5: the growth inhibition rate is greater than 85%) | 0 (Level 0: the growth inhibition rate is less than 5%) | 0 (Level 0: the growth inhibition rate is less than 5%) | 5 (Level 5: the growth inhibition rate is greater than 85%) |
| CSC(=O)C(C)Oc1nc(F)c(Cl)c(N)c1Cl (stereo not drawn) [Compound 4] | 5 (Level 5: the growth inhibition rate is greater than 85%) | 5 (Level 5: the growth inhibition rate is greater than 85%) | 0 (Level 0: the growth inhibition rate is less than 5%) | 5 (Level 5: the growth inhibition rate is greater than 85%) | 5 (Level 5: the growth inhibition rate is greater than 85%) | 5 (Level 5: the growth inhibition rate is greater than 85%) | 5 (Level 5: the growth inhibition rate is greater than 85%) | 5 (Level 5: the growth inhibition rate is greater than 85%) | 5 (Level 5: the growth inhibition rate is greater than 85%) | 0 (Level 0: the growth inhibition rate is less than 5%) | 0 (Level 0: the growth inhibition rate is less than 5%) | 5 (Level 5: the growth inhibition rate is greater than 85%) |
| CC(Oc1nc(F)c(Cl)c(N)c1Cl)C(=O)SC1CCCCC1 (stereo not drawn) [Compound 82] | 5 (Level 5: the growth inhibition rate is greater than 85%) | 5 (Level 5: the growth inhibition rate is greater than 85%) | 0 (Level 0: the growth inhibition rate is less than 5%) | 5 (Level 5: the growth inhibition rate is greater than 85%) | 5 (Level 5: the growth inhibition rate is greater than 85%) | 5 (Level 5: the growth inhibition rate is greater than 85%) | 5 (Level 5: the growth inhibition rate is greater than 85%) | 5 (Level 5: the growth inhibition rate is greater than 85%) | 5 (Level 5: the growth inhibition rate is greater than 85%) | 0 (Level 0: the growth inhibition rate is less than 5%) | 0 (Level 0: the growth inhibition rate is less than 5%) | 5 (Level 5: the growth inhibition rate is greater than 85%) |
| COCCCSC(=O)C(C)Oc1nc(F)c(Cl)c(N)c1Cl (stereo not drawn) [Compound 88] | 5 (Level 5: the growth inhibition rate is greater than 85%) | 5 (Level 5: the growth inhibition rate is greater than 85%) | 0 (Level 0: the growth inhibition rate is less than 5%) | 5 (Level 5: the growth inhibition rate is greater than 85%) | 5 (Level 5: the growth inhibition rate is greater than 85%) | 5 (Level 5: the growth inhibition rate is greater than 85%) | 5 (Level 5: the growth inhibition rate is greater than 85%) | 5 (Level 5: the growth inhibition rate is greater than 85%) | 5 (Level 5: the growth inhibition rate is greater than 85%) | 0 (Level 0: the growth inhibition rate is less than 5%) | 0 (Level 0: the growth inhibition rate is less than 5%) | 5 (Level 5: the growth inhibition rate is greater than 85%) |
| CSC(=O)C(C)Oc1nc(F)c(C)c(N)c1C (stereo not drawn) [Compound 7] | 5 (Level 5: the growth inhibition rate is greater than 85%) | 5 (Level 5: the growth inhibition rate is greater than 85%) | 0 (Level 0: the growth inhibition rate is less than 5%) | 5 (Level 5: the growth inhibition rate is greater than 85%) | 5 (Level 5: the growth inhibition rate is greater than 85%) | 5 (Level 5: the growth inhibition rate is greater than 85%) | 5 (Level 5: the growth inhibition rate is greater than 85%) | 5 (Level 5: the growth inhibition rate is greater than 85%) | 5 (Level 5: the growth inhibition rate is greater than 85%) | 0 (Level 0: the growth inhibition rate is less than 5%) | 0 (Level 0: the growth inhibition rate is less than 5%) | 5 (Level 5: the growth inhibition rate is greater than 85%) |
| CCCCOCCSC(=O)C(C)Oc1nc(F)c(Cl)c(N)c1Cl (stereo not drawn) [Compound 87] | 5 (Level 5: the growth inhibition rate is greater than 85%) | 5 (Level 5: the growth inhibition rate is greater than 85%) | 0 (Level 0: the growth inhibition rate is less than 5%) | 5 (Level 5: the growth inhibition rate is greater than 85%) | 5 (Level 5: the growth inhibition rate is greater than 85%) | 5 (Level 5: the growth inhibition rate is greater than 85%) | 5 (Level 5: the growth inhibition rate is greater than 85%) | 5 (Level 5: the growth inhibition rate is greater than 85%) | 5 (Level 5: the growth inhibition rate is greater than 85%) | 0 (Level 0: the growth inhibition rate is less than 5%) | 0 (Level 0: the growth inhibition rate is less than 5%) | 5 (Level 5: the growth inhibition rate is greater than 85%) |
